Data: US9359351B2, “Cap/endo dual inhibitors and their use in the treatment, amelioration or prevention of a viral disease” (priority 2014, dated 2016)
pIC50, pKd: −log10 of the molar value.

Tests used:
[1] = target: PB2 cap binding domain (CBD) of an avian H5N1 influenza virus (Influenza A virus, UniProt Q9Q0V1); test: biochemical; conditions: Biacore KD
[2] = target: T1, influenza A virus (IAV) PA-Nter fragment (amino acids 1-209) (Influenza A virus, UniProt P31343); test: biochemical; conditions: FRET IC50
T1 construct: PA-Nter fragment (amino acids 1-209); made in house

[3] = test system: influenza A virus (IAV) A/Aichi/2/68 (H3N2); test: microbe, parasite or virus in culture; type: cell-based, influenza A virus A/Aichi/2/68 (H3N2) on MDCK cells; conditions: H3N2, MDCK; for pIC50: 48 h, read-out: CPE IC50; for inhibition at 50 µM: read-out: CPE % inhib
[4] = target: whole RNP complex, IAV strain A/PR/8/34 (Influenza A virus, UniProt P03428+P03433); test: biochemical

Chain of PB2 cap binding domain (CBD) of an avian H5N1 influenza virus (Q9Q0V1 318-483 limits assumed): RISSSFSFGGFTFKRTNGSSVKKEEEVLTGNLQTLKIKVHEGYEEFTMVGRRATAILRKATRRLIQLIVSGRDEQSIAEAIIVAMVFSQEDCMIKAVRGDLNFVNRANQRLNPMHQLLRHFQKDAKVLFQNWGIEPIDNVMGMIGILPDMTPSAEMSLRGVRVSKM

Compound	pKd [1]	pIC50 [2]	pIC50 [3]	pIC50 [4]	inhibition at 50 µM [3]
CC(C)N1CCn2c(CNc3nccc4[nH]ncc34)cc(=O)c(O)c2C1=O	< 4.00	6.40	< 4.30		
CC(C)N1CCn2c(CNc3cccc4n[nH]c(=O)n34)cc(=O)c(O)c2C1=O	4.00	6.03	< 4.30		
CC(C)N1CCn2c(CNc3cc4[nH]ncc4c(Cl)n3)cc(=O)c(O)c2C1=O	3.52	6.07	< 4.30		
CC(C)N1CCn2c(CNCCNc3nccc4[nH]ncc34)cc(=O)c(O)c2C1=O		5.84	< 4.30		
CC(C)N1CCn2c(CNCCNc3cc4[nH]ccc4c(Cl)n3)cc(=O)c(O)c2C1=O		6.24	< 4.30		
CC(C)N1CCn2c(CNC(=O)c3ccc4n[nH]c(=O)n4c3)cc(=O)c(O)c2C1=O	3.73	6.06	< 4.30		
CC(C)N1CCn2c(CNC(=O)c3cccn4c(=O)[nH]nc34)cc(=O)c(O)c2C1=O	< 4.30	6.55	< 4.30		
CC(C)[C@H](NC(=O)c1cccn2c(=O)[nH]nc12)c1cc(=O)c(O)c2n1CCN(C(C)C)C2=O	3.79	6.08	< 4.30		
CC(C)N1CCn2c(CNC(=O)[C@H](Cc3cccc(Cl)c3)NC(=O)c3cccn4c(=O)[nH]nc34)cc(=O)c(O)c2C1=O	3.32	6.54	4.51		
CCC(NC(=O)c1cccn2c(=O)[nH]nc12)C(=O)NCc1cc(=O)c(O)c2n1CCN(C(C)C)C2=O (stereo not shown)	5.20	6.37	< 4.30		
CC(C)N1CCn2c(CNC(=O)C3(NC(=O)c4cccn5c(=O)[nH]nc45)CCCCC3)cc(=O)c(O)c2C1=O	< 4.60	5.55	< 4.30		
CC(C)N1CCn2c(CNC(=O)CNC(=O)c3ccc4n[nH]c(=O)n4c3)cc(=O)c(O)c2C1=O	4.85	5.71	< 4.30		
CC(C)N1CCn2c(CNC(=O)[C@H](NC(=O)c3cccn4c(=O)[nH]nc34)c3ccccc3)cc(=O)c(O)c2C1=O	< 4.00	5.01	< 4.30		
CC(C)N1CCn2c(CNC(=O)c3cccc(NC(=O)c4ccc5n[nH]c(=O)n5c4)c3)cc(=O)c(O)c2C1=O	4.66	5.78	4.45		
CC(C)N1CCn2c(CNC(=O)[C@@H](Cc3cccc(Cl)c3)NC(=O)c3ccc4n[nH]c(=O)n4c3)cc(=O)c(O)c2C1=O	< 4.00	5.54	4.29		
CC(C)N1CCn2c(CNC(=O)c3cccc(Nc4nccc5[nH]ncc45)c3)cc(=O)c(O)c2C1=O	4.01	6.26	4.66		
CC(C)N1CCn2c(CNC(=O)[C@H](NC(=O)c3ccc4n[nH]c(=O)n4c3)c3ccccc3)cc(=O)c(O)c2C1=O	< 4.00	5.84	< 4.30		
CC(C)N1CCn2c(CNC(=O)c3n[nH]c4ncccc34)cc(=O)c(O)c2C1=O	< 4.00	6.40	< 4.30		
CC(C)N1CCn2c(CNC(=O)[C@@H](Cc3cccc(Cl)c3)NC(=O)c3n[nH]c4ncccc34)cc(=O)c(O)c2C1=O	4.26	5.96	< 4.30		
CC(C)N1CCn2c(CNCCOC(=O)c3cccn4c(=O)[nH]nc34)cc(=O)c(O)c2C1=O	< 4.00	5.85	< 4.30		
CC(C)N1CCn2c(COC(=O)c3cccn4c(=O)[nH]nc34)cc(=O)c(O)c2C1=O	< 4.00	6.39	< 4.30		
CC(C)N1CCn2c(COCCOc3nccc4[nH]ncc34)cc(=O)c(O)c2C1=O	< 4.00	6.43	< 4.30		

Compound	pKd [1]	pIC50 [2]	pIC50 [3]	pIC50 [4]	inhibition at 50 µM [3]
CC(C)[C@H](Nc1nc(-c2n[nH]c3ncc(F)cc23)ncc1F)C(=O)NCc1cc(=O)c(O)c2n1CCN(C(C)C)C2=O	5.00	5.09	< 4.30		
CCC(Nc1nc(-c2n[nH]c3ncc(F)cc23)ncc1F)C(=O)NCc1cc(=O)c(O)c2n1CCN(C(C)C)C2=O (stereo not shown)		4.91	< 4.30		
CC(C)N1CCn2c(CNC(=O)CCCCCNc3nc(-c4n[nH]c5ncc(F)cc45)ncc3F)cc(=O)c(O)c2C1=O	6.38	4.71	4.82		
CC(C)N1CCn2c(CNC(=O)CC(Nc3nc(-c4n[nH]c5ncc(F)cc45)ncc3F)C3CC3)cc(=O)c(O)c2C1=O (stereo not shown)	5.09	4.71	4.32		
CC(C)N1CCn2c(CNC(=O)c3c[nH]c4ncc(C5CC5)nc34)cc(=O)c(O)c2C1=O	4.89	6.06	< 4.60		
CC(C)N1CCn2c(COC(=O)c3c[nH]c4ncc(C5CC5)nc34)cc(=O)c(O)c2C1=O	5.03	6.31	4.16		
CC(C)[C@H](NC(=O)c1c[nH]c2ncc(C3CC3)nc12)C(=O)NCc1cc(=O)c(O)c2n1CCN(C(C)C)C2=O	4.77	6.12	4.38		
CC(C)N1CCn2c(CNC(=O)CCCCCNC(=O)c3c[nH]c4ncc(C5CC5)nc34)cc(=O)c(O)c2C1=O	5.20	6.24	4.50		
CC(C)N1CCn2c(CNC(=O)CNC(=O)c3c[nH]c4ncc(C5CC5)nc34)cc(=O)c(O)c2C1=O	5.40	6.57	< 4.30		
CC(C)N1CCn2c(CNC(=O)[C@H]3CCC[C@@H](Nc4nc(-c5n[nH]c6ncc(F)cc56)ncc4F)C3)cc(=O)c(O)c2C1=O		< 4.60	4.82		
CCC(NC(=O)c1c[nH]c2ncc(C3CC3)nc12)C(=O)NCc1cc(=O)c(O)c2n1CCN(C(C)C)C2=O (stereo not shown)		6.34	< 4.30		
CC(C)N1CCn2c(CNC(=O)[C@H](NC(=O)c3c[nH]c4ncc(C5CC5)nc34)c3ccccc3)cc(=O)c(O)c2C1=O		5.63	5.09		
CC(C)N1CCn2c(CNC(=O)C3(NC(=O)c4c[nH]c5ncc(C6CC6)nc45)CCCCC3)cc(=O)c(O)c2C1=O			< 4.30	6.42	
CC(C)[C@H](Nc1nc(C2=CN3C(=O)N=NC3C=C2)ncc1F)C(=O)NCc1cc(=O)c(O)c2n1CCN(C(C)C)C2=O (stereo partly shown)			< 4.30	< 4.30	
CC(C)N1CCn2c(CNC(=O)CCCCCNc3nc(C4=CN5C(=O)N=NC5C=C4)ncc3F)cc(=O)c(O)c2C1=O (stereo not shown)			< 4.60	5.27	
CC(C)[C@@H](CC(=O)NCc1cc(=O)c(O)c2n1CCN(C(C)C)C2=O)Nc1nc(C2=CN3C(=O)N=NC3C=C2)ncc1F (stereo partly shown)			< 5.89	5.09	
CC(C)N1CCn2c(CNC(=O)C[C@H](NC(=O)c3c[nH]c4ncc(C5CC5)nc34)c3ccccc3)cc(=O)c(O)c2C1=O			< 4.47	5.82	
CC(C)N1CCn2c(CNC(=O)[C@H](NC(=O)c3c[nH]c4ncc(C5CC5)nc34)C3CC3)cc(=O)c(O)c2C1=O				6.66	47%
CC(C)N1CCn2c(CNC(=O)CC(NC(=O)c3c[nH]c4ncc(C5CC5)nc34)C3CC3)cc(=O)c(O)c2C1=O (stereo not shown)				6.85	10%
CC(C)N1CCn2c(CNC(=O)c3cccc(NC(=O)c4n[nH]c5ncccc45)c3)cc(=O)c(O)c2C1=O [drawing 28]	4.58	5.82	< 4.30		
CC(C)N1CCn2c(CNC(=O)c3cccc(NC(=O)c4n[nH]c5ncccc45)c3)cc(=O)c(O)c2C1=O [drawing 29]	4.71	5.91			
